From US11136299B2, “Benzodiazepine derivatives for use in the treatment of Chlamydiales infections” (priority 2015, dated 2021)

Columns and labels:
Type in all cases: cell-based
[1] = tested on: Chlamydia trachomatis (Ctr) strain L2/434/Bu; experiment: Ctr infectivity assay, progeny infection, cellular protection by GFP microscopy quantification; conditions: HeLa229 cells, Ctr MOI1, progeny infection fixed 48 hpi, versus solvent-treated cells; for Cellular protection at 75 μM (%): 75 μM compound; for inhibition at 25 µM: Chlamydia trachomatis, HeLa 229, 48 h
Description: (§1) Chlamydia trachomatis (Ctr). Laboratory-adapted strain L2/434/Bu (ATCC VR902B) was used in assays. Full biological and genetic information is available for this strain including complete genome sequence and defined proteome. This strain has a relatively low particle to infectivity ratio, perform efficient cell infection and has a higher viability than standard genital tract isolates with faster developmental cycle. Culture conditions have been described in (Wang Y., Kahane S., Cutcliffe L. T., Skilton R. J., Lambden P. R., Clarke I. N. Development of a transformation system for Chlamydia trachomatis: Restoration of glycogen biosynthesis by acquisition of a plasmid shuttle vector. PLoS Pathogen, 2011, 7(9): e1002258. doi: 10.1371/journal.ppat.1002258).
Compound application during Chlamydia trachomatis infection. HeLa229 cells were pretreated with Retro-1 and Retro-1 derivatives in concentrations of 25 μM and 75 μM for 1 hour until Chlamydia trachomatis (MOI1) were added to the cells. Compounds were present during infection. To obtain progeny infection, compound treated cells were lysed 24 h post infection (hpi) and lysate was used to infect fresh HeLa 229 cells. Infected cells of progeny infection were fixed with 4% Paraformaldehyde 48 hpi. Cells were stained for DAPI and Chlamydia trachomatis were detected by GFP-signal. Images are representative of n=2 independent experiments. Quantification of infected cells by Chlamydia trachomatis was realized from microscopy images with Image J software (FIG. 7) and cellular protection by compounds at 25 μM and 75 μM was then determined (Table 1) by comparison with solvent-treated cells (control) with the following equation: […]

[2] = tested on: Chlamydia trachomatis (Ctr) strain L2/434/Bu; experiment: Ctr infectivity assay, primary and progeny infection, HSP60 immunoblot; conditions: Retro-1 50-75 μM in the primary infection; HeLa229 cells; FIG. 6
Description: as §1, with “performs” for “perform”
Compound application during Ctr infection. HeLa229 cells were pretreated with Retro-1 in concentrations of 25, 50 and 75 μM for 30 min until Ctr (MOI1) were added to the cells. Retro-1 was present during infection.
Cells with primary infection were lysed 24 h post infection (hpi). To obtain progeny infection compound treated cells were lysed 48 hpi and lysate was used to infect fresh HeLa229 cells. Progeny infection was lysed 24 hpi and analyzed together with primary infection samples by immunoblot. Chlamydial growth was detected with antibodies against chlamydial HSP60 protein and Actin was used as loading control (FIG. 6).

[3] = tested on: Simkania negevensis (Sn) strain Z; experiment: Sn infectivity assays (primary and progeny infection) in HeLa229 cells; conditions: for effect on primary and progeny infection for Simkania / concentration at which maximal inhibition of Sn replication was observed: HeLa cells; for effect on primary and progeny infection for Simkania: GroEL western, inclusion size, inclusion number, microscopy; for concentration at which maximal inhibition of Sn replication was observed: tested at 25 and 75 μM, FIGS. 1-4; for effect on Sn inclusions (transmission electron microscopy): infected HeLa cells versus DMSO-treated control, FIG. 5
Experimental: Simkania negevensis (Sn) strain Z (ATCC VR-1471) was prepared as described previously (Mehlitz A, Karunakaran K, Herweg J A, Krohne G, van de Linde S, Rieck E, Sauer M, Rudel T. The chlamydial organism Sn forms ER vacuole contact sites and inhibits ER-stress. Cell Microbiol 2014; 16(8):1224-1243).
Briefly, HeLa229 cells were grown to 50-70% confluence, were inoculated with Sn in RPMI1640 with 5% FBS, for 6 h at 35° C. in a humidified incubator at 5% CO2. Medium was replaced by infection medium (RPMI1640, Glutamax, 5% FBS, w/o HEPES) and growth was allowed for 3 days. Cells were mechanically detached and bacteria were released using ˜2-5 mm glass beads (Carl Roth). Low speed supernatant (600×g, 4° C. and 5 min) was subjected to high-speed centrifugation (20,000×g, 4° C. and 30 min) to pellet bacteria. Bacteria were washed twice with 5 ml SPG (250 mM sucrose, 50 mM sodium phosphate, 5 mM glutamate, pH 7.4), aliquoted and stored at −80° C. in SPG.
40,000 Hela cells were seeded in 12-well cluster plates, inhibitor-treated and infected as indicated in the respective experiment.
For infectivity assays cells were either fixed and stained at indicated time points (FIG. 2, 4; inclusion formation/primary infection) or bacteria were released via one freeze thaw cycle (−70° C./37° C.) followed by mechanical release through pipetting and transfer to fresh HeLa229 cells (1:25-1:50, progeny/infectivity). Cells were centrifuged for 1 h at 35° C. and medium exchanged to infection medium. Progeny was fixed at day 3 post infection and processed for staining (FIG. 3) or harvested for immunoblotting (FIG. 1). Infectivity assays were imaged on an automated fluorescence microscope Leica DMIR (FIG. 4). Numbers and average sizes of the SCV as well as host cell numbers were determined via GroEL and DAPI staining and images were analysed and quantified using FIJI (ImageJ) and Excel (Microsoft).
In progeny assay, bacteria are first grown in Hela299 cells treated with inhibitors, Retro-1 and VP-184 (25 and 75 μM), and the infectious particles from this primary infection are applied to fresh cells in the absence of inhibitor to measure the bacterial load (GroEL immunoblot) and inclusion formation (immunofluorescence microscopy).

SMILES | Cellular protection at 75 μM (%) [1] [%] | inhibition at 25 µM ([1]; 25 μM compound) [%] | further results
O=C1CNC(c2ccccc2)c2cc(Br)ccc2N1 (stereo not drawn) [VP174, 7-bromo-5-phenyl-1,3,4,5-tetrahydro-2H-benzo[e][1,4]diazepin-2-one] | 52.8 | 27.6 | –
CCC(=O)N1CC(=O)Nc2ccc(Br)cc2C1c1ccccc1 (stereo not drawn) [Retro-1, 7-bromo-5-phenyl-4-propionyl-1,3,4,5-tetrahydro-2H-benzo[e][1,4]diazepin-2-one] | 2.4 | 26.5 | infectivity in the Ctr progeny (HSP60 immunoblot) [2]: significant reduced infectivity in the progeny; effect on primary and progeny infection for Simkania [3]: inhibitor effect on primary and progeny infection; concentration at which maximal inhibition of Sn replication was observed [3]: 75 µM; effect on Sn inclusions (transmission electron microscopy) [3]: inclusions were smaller
CC1CCC(N2CC(=O)Nc3ccc(Br)cc3C2c2ccccc2)C1 (stereo not drawn) [HA280, 7-bromo-4-(3-methylcyclopentyl)-5-phenyl-1,3,4,5-tetrahydro-2H-benzo[e][1,4]diazepin-2-one] | – | 100 | Cellular protection at 25 μM (%) ([1]; 25 μM compound): full protection
O=C1CN=C(c2ccccc2)c2cc(Br)cc(Br)c2N1 [HA061, 7,9-dibromo-5-phenyl-1,3-dihydro-2H-benzo[e][1,4]diazepin-2-one] | – | 57.8 | –
CN1C(=O)CN=C(c2ccccc2Cl)c2cc(Cl)ccc21 [HA200, 7-chloro-5-(2-chlorophenyl)-1-methyl-1,3-dihydro-2H-benzo[e][1,4]diazepin-2-one] | – | 47 | –
O=C1CN=C(c2ccccc2)c2cc(Br)ccc2N1 [VP173, 7-bromo-5-phenyl-1,3-dihydro-2H-benzo[e][1,4]diazepin-2-one] | 100 | 61.5 | Cellular protection at 75 μM (%) ([1]; listed as VP 173): full protection
CCCN1CC(=O)Nc2ccc(Br)cc2C1c1ccccc1 (stereo not drawn) [VP-184, 7-bromo-5-phenyl-4-propyl-1,3,4,5-tetrahydro-2H-benzo[e][1,4]diazepin-2-one] | – | – | effect on primary and progeny infection for Simkania [3]: inhibitor effect on primary and progeny infection; concentration at which maximal inhibition of Sn replication was observed [3]: 25 µM; effect on Sn inclusions (transmission electron microscopy) [3]: strongly reduced Sn inclusion formation, size, numbers and Sn replication
O=C1CN=C(c2ccccc2Cl)c2cc(Cl)ccc2N1 [HA197, 7-chloro-5-(2-chlorophenyl)-1,3-dihydro-2H-benzo[e][1,4]diazepin-2-one] | 84.3 | 90.6 | –
O=C1CN(C2CCCC2)C(c2ccccc2)c2cc(Br)ccc2N1 (stereo not drawn) [HA229, 7-bromo-4-cyclopentyl-5-phenyl-1,3,4,5-tetrahydro-2H-benzo[e][1,4]diazepin-2-one] | – | 20.2 | –
